US8604042B2, “Bi-aryl meta-pyrimidine inhibitors of kinases” (TargeGen, Inc., priority 2005, dated 2013)
pIC50: −log10 of the molar value. Structures can show the parent of a compound that is named as a salt.

Biological target: T1, recombinant JAK2 (Homo sapiens, UniProt O60674)
T1 construct: purchased Upstate Cell Signaling Solutions
Test: IC50 value determinations for Jak2 kinase, luminescence-based kinase assay (Kinase-Glo)
Type: biochemical

T1 sequence (O60674 808-1132 limits assumed): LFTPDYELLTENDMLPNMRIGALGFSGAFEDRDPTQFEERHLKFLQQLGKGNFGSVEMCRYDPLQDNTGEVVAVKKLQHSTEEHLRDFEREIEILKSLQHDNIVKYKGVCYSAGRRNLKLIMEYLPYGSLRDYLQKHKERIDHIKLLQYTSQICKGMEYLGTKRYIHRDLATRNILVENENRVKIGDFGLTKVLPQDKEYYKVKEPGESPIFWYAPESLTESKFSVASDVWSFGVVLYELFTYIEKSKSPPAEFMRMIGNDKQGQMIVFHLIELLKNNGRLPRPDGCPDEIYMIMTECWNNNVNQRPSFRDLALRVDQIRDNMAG

pIC50 (Table 1) | pIC50 (Table 5, Initial Screening Hits for JAK2) | SMILES
8.03 | – | Cc1cnc(Nc2ccc(OCCN3CCCC3)cc2)nc1Nc1ccc(F)c2[nH]ccc12 [N2-(4-(2-(pyrrolidin-1-yl)ethoxy)phenyl)-N4-(7-fluoro-1H-indol-4-yl)-5-methylpyrimidine-2,4-diamine Hydrochloride]
7.35 | – | Cc1ccc(Nc2nc(Nc3ccc(OCCN4CCCC4)cc3)ncc2C)cc1S(=O)(=O)NC(C)(C)C [N-tert-Butyl-2-methyl-5-{5-methyl-2-[4-(2-pyrrolidin-1-yl-ethoxy)-phenylamino]-pyrimidin-4-ylamino}-benzenesulfonamide]
7.56 | – | CCOC(=O)c1cccc(Nc2nc(Nc3ccc(N4CCN(C)CC4)cc3)ncc2C)c1C [2-Methyl-3-{5-methyl-2-[4-(4-methyl-piperazin-1-yl)-phenylamino]-pyrimidin-4-ylamino)-benzoic acid ethyl ester]
7.72 | – | Cc1cnc(Nc2ccc(OCCN3CCCC3)cc2)nc1Nc1cccc2[nH]ccc12 [N2-(4-(2-(pyrrolidin-1-yl)ethoxy)phenyl)-N4-(1H-indol-4-yl)-5-methylpyrimidine-2,4-diamine Hydrochloride]
6.16 | – | Cc1cnc(Nc2ccc(CN3CCNCC3)cc2)nc1Nc1ccc(Cl)c2[nH]ccc12 [N4-(7-chloro-1H-indol-4-yl)-5-methyl-N2-(4-((piperazin-1-yl)methyl)phenyl)pyrimidine-2,4-diamine Hydrochloride]
6.50 | – | Cc1cnc(Nc2cccc(S(=O)(=O)N3CCCCC3)c2)nc1Nc1cccc(S(=O)(=O)NC(C)(C)C)c1 [N-tert-Butyl-3-{5-methyl-2-[3-(piperidine-1-sulfonyl)-phenylamino]-pyrimidin-4-ylamino}-benzenesulfonamide]
7.73 | – | Cc1cnc(Nc2ccc(N3CCN(C)CC3)cc2)nc1Nc1cccc(S(=O)(=O)N2C(C)CCC2C)c1 (stereo not drawn) [N4-[3-(2,5-Dimethyl-pyrrolidine-1-sulfonyl)-phenyl]-5-methyl-N2-[4-(4-methyl-piperazin-1-yl)-phenyl]-pyrimidine-2,4-diamine Hydrochloride]
7.21 | – | Cc1cnc(Nc2ccc(OCCN3CCCC3)cc2)nc1Nc1cccc([N+](=O)[O-])c1 [N2-(4-(2-(pyrrolidin-1-yl)ethoxy)phenyl)-5-methyl-N4-(3-nitrophenyl)pyrimidine-2,4-diamine Hydrochloride]
7.68 | – | Cc1cnc(Nc2ccc(OCCN3CCCC3)cc2)nc1Nc1cccc(OC(F)(F)F)c1 [N2-(4-(2-(pyrrolidin-1-yl)ethoxy)phenyl)-5-methyl-N4-(3-(trifluoromethoxy)phenyl) pyrimidine-2,4-diamine]
8.17 | – | Cc1cnc(Nc2ccc(OCCN3CCCC3)cc2)nc1Nc1cccc(C(C)(C)C)c1 [N2-(4-(2-(pyrrolidin-1-yl)ethoxy)phenyl)-N4-(3-tert-butylphenyl)-5-methylpyrimidine-2,4-diamine Hydrochloride]
– | 5.20 | COc1cc(Nc2nc(Nc3ccc(OCCN4CCCC4)cc3)ncc2C#N)c(Cl)cc1Cl [Compound 1]
7.91 | – | Cc1cc(Nc2nc(Nc3ccc(OCCN4CCCC4)cc3)ncc2C)ccc1Cl [N2-(4-(2-(pyrrolidin-1-yl)ethoxy)phenyl)-N4-(4-chloro-3-methylphenyl)-5-methylpyrimidine-2,4-diamine Hydrochloride]
7.70 | – | Cc1cnc(Nc2ccc(C(C)N3CCOCC3)cc2)nc1Nc1cccc(C(C)(C)C)c1 (stereo not drawn) [N4-(3-tert-butylphenyl)-5-methyl-N2-(4-(1-morpholinoethyl)-phenyl)pyrimidine-2,4-diamine Hydrochloride]
7.06 | – | Cc1cnc(Nc2ccc(N3CCN(C)CC3)cc2)nc1Nc1cccc(C(F)(F)F)c1C [N4-(3-(trifluoromethyl)-2-methylphenyl)-5-methyl-N2-(4-(4-methylpiperazin-1-yl)phenyl)pyrimidine-2,4-diamine hydrochloride]
7.94 | – | Cc1cnc(Nc2ccc(OC3CCNCC3)cc2)nc1Nc1ccc(Cl)c(C(F)(F)F)c1 [N4-(4-Chloro-3-trifluoromethyl-phenyl)-5-methyl-N2-[4-(piperidin-4-yloxy)-phenyl]-pyrimidine-2,4-diamine]
